Drawing on ChEMBL document CHEMBL5226282, “TLR2 Agonistic Small Molecules: Detailed Structure-Activity Relationship, Applications, and Future Prospects” (J Med Chem, 2021), this text covers EC50 for 26 molecules.

For one experiment, the target named is Toll-like receptor 2 (Homo sapiens, UniProt O60603). Briefly: Agonist activity at human TLR2 transfected in HEK293 cells. The format is cell-based.
The target of another experiment is Toll-like receptor 1/2 (Homo sapiens, UniProt O60603+Q15399). The experiment in a line: Agonist activity at TLR2/TLR1 in human THP-1 cells. It is filed as cell-based.
Experiment [1] has as its target Toll-like receptor 1/2 (Mus musculus). The experiment in a line: Agonist activity at TLR2/TLR1 in mouse Macrophage cell line.

Sequence of Toll-like receptor 1/2 (O60603 whole entry): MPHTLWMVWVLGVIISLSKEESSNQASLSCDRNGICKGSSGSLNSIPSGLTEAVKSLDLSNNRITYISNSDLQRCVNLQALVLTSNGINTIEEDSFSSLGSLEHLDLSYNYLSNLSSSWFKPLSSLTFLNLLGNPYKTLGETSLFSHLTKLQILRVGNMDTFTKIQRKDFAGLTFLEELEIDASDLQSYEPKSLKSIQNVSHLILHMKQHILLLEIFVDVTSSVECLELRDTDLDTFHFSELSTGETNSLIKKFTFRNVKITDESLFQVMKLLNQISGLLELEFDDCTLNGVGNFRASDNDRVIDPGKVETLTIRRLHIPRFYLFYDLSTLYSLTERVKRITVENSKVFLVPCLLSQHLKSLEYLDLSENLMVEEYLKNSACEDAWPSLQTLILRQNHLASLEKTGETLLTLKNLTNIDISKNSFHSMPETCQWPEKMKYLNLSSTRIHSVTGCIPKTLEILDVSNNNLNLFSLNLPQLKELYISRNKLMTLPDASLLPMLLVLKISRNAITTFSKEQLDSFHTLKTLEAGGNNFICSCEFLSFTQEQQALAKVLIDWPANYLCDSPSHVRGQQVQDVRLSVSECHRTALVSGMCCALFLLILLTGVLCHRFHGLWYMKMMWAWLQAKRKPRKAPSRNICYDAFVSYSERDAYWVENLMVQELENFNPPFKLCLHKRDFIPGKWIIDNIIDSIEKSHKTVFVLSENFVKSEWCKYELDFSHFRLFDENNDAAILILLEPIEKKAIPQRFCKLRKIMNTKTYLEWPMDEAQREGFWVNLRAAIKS
Sequence of Toll-like receptor 1/2 (Q15399 whole entry): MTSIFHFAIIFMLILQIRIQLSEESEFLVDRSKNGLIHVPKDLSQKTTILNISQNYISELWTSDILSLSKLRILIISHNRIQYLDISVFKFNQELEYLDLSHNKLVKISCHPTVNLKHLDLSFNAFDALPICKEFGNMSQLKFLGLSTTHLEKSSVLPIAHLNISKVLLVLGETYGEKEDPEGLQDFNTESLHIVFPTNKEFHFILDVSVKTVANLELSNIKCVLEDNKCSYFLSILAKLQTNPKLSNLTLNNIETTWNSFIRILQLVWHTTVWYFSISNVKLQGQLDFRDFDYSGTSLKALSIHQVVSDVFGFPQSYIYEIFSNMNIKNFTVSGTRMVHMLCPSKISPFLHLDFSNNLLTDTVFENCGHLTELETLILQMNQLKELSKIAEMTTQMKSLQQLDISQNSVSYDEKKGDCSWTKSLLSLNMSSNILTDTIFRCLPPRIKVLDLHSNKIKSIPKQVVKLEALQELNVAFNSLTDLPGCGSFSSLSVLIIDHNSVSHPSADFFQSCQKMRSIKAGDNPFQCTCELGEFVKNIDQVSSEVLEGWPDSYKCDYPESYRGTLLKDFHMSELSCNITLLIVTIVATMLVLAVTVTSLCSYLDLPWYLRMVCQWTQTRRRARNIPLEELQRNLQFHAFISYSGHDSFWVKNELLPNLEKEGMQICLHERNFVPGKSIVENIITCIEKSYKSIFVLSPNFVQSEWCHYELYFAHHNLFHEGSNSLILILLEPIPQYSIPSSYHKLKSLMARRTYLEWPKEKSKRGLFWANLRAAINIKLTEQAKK
Sequence of Toll-like receptor 2 (O60603 whole entry): as the sequence (O60603 whole entry) above

On Toll-like receptor 2, `CCCCCCCCCCCC(=O)OC[C@H](CSC[C@@H](N)C(=O)NCCCCCN)OC(=O)CCCCCCCCCCC` came in with an EC50 of 1220 nM.
Still for that read-out and setting: the value for `CCCCCCCCCCCC(=O)OC[C@H](CSC[C@@H](N)C(=O)NCCOCCOS(=O)(=O)O)OC(=O)CCCCCCCCCCC` was 61 nM; that for `CCCCCCCCCCCC(=O)OC[C@H](CSC[C@@H](N)C(=O)NCCc1ccc(OCCOCCO)cc1)OC(=O)CCCCCCCCCCC` was 15300 nM.
For `CCCCCCCCCCCC(=O)OC[C@H](CSC[C@@H](N)C(=O)NCCc1ccc(Oc2ccccc2)cc1)OC(=O)CCCCCCCCCCC`, the response on Toll-like receptor 2 was half-maximal at 4080 nM (EC50). This EC50 lies about 3.8-fold lower than the previous one.
Regarding `CCCCCCCCCCCC(=O)OC[C@H](CSC[C@@H](N)C(=O)NCCCCCCCCCC(=O)O)OC(=O)CCCCCCCCCCC`, the EC50 on Toll-like receptor 2 worked out at 4400 nM.
As for `O=C(N[C@H]1C[C@@H]1c1ccccc1)[C@@H]1CN(C(=O)Cc2cnc(CC(=O)N3C[C@@H](C(=O)N[C@H]4C[C@@H]4c4ccccc4)[C@H](C(=O)N[C@H]4C[C@@H]4c4ccccc4)C3)cn2)C[C@H]1C(=O)N[C@H]1C[C@@H]1c1ccccc1`, the EC50 is 130 nM at Toll-like receptor 1/2 and more than 5000 nM in experiment [1].
Turning to `CCCCCCNC(=O)[C@@H]1CN(C(=O)c2ccc(C(=O)N3C[C@@H](C(=O)N[C@H]4C[C@@H]4c4ccccc4)[C@H](C(=O)N[C@@H]4C[C@H]4c4ccccc4)C3)cc2)C[C@H]1C(=O)NCCCCCC`, the EC50 on Toll-like receptor 1/2 was found to be 50 nM; in experiment [1], 360 nM.
Take `O=C(NCCc1ccc(F)cc1)[C@@H]1CN(C(=O)/C=C/C(=O)N2C[C@@H](C(=O)NCCc3ccc(F)cc3)[C@H](C(=O)NCCc3ccc(F)cc3)C2)C[C@H]1C(=O)NCCc1ccc(F)cc1`: the EC50 (at Toll-like receptor 1/2; in experiment [1]) was more than 5000 nM each time.
In the case of `O=C(N[C@H]1C[C@@H]1c1ccccc1)[C@@H]1CN(C(=O)Cc2cccc(CC(=O)N3C[C@@H](C(=O)N[C@H]4C[C@@H]4c4ccccc4)[C@H](C(=O)N[C@H]4C[C@@H]4c4ccccc4)C3)c2)C[C@H]1C(=O)N[C@H]1C[C@@H]1c1ccccc1`, the EC50 (on Toll-like receptor 1/2; in experiment [1]) was more than 5000 nM in each case.
As for `O=C(N[C@H]1C[C@@H]1c1ccccc1)[C@@H]1CN(C(=O)/C=C/C(=O)N2C[C@@H](C(=O)N[C@H]3C[C@@H]3c3ccccc3)[C@H](C(=O)N[C@H]3C[C@@H]3c3ccccc3)C2)C[C@H]1C(=O)N[C@H]1C[C@@H]1c1ccccc1`, the EC50 (at Toll-like receptor 1/2; in experiment [1]) was more than 5000 nM throughout.
Regarding `CCCCCCCCCCNC(=O)[C@@H]1CN(C(=O)c2ccc(C(=O)N3C[C@@H](C(=O)N[C@H]4C[C@@H]4c4ccccc4)[C@H](C(=O)N[C@@H]4C[C@H]4c4ccccc4)C3)cc2)C[C@H]1C(=O)NCCCCCCCCCC`, the half-maximal effective concentration (EC50) turned out to be 0.18 nM at Toll-like receptor 1/2 and 4 nM in experiment [1].
`O=C(N[C@H]1C[C@@H]1c1ccccc1)[C@@H]1CN(C(=O)c2c(F)c(F)c(C(=O)N3C[C@@H](C(=O)N[C@H]4C[C@@H]4c4ccccc4)[C@H](C(=O)N[C@H]4C[C@@H]4c4ccccc4)C3)c(F)c2F)C[C@H]1C(=O)N[C@H]1C[C@@H]1c1ccccc1`: the EC50 on Toll-like receptor 1/2 is 110 nM; in experiment [1], more than 5000 nM.
The corresponding values for `CCCCCCCCCCCCNC(=O)[C@@H]1CN(C(=O)c2ccc(C(=O)N3C[C@@H](C(=O)N[C@H]4C[C@@H]4c4ccccc4)[C@H](C(=O)N[C@@H]4C[C@H]4c4ccccc4)C3)cc2)C[C@H]1C(=O)N[C@H]1C[C@@H]1c1ccccc1` are 0.1 nM and 2.1 nM.
`O=C(NCCc1ccc(F)cc1)[C@@H]1CN(C(=O)[C@@H]2CCC[C@H](C(=O)N3C[C@@H](C(=O)NCCc4ccc(F)cc4)[C@H](C(=O)NCCc4ccc(F)cc4)C3)C2)C[C@H]1C(=O)NCCc1ccc(F)cc1`: the EC50 (on Toll-like receptor 1/2; in experiment [1]) was more than 5000 nM in each case.
In the case of `O=C(N[C@H]1C[C@@H]1c1ccccc1)[C@@H]1CN(C(=O)c2cccc(C(=O)N3C[C@@H](C(=O)N[C@H]4C[C@@H]4c4ccccc4)[C@H](C(=O)N[C@H]4C[C@@H]4c4ccccc4)C3)c2)C[C@H]1C(=O)N[C@H]1C[C@@H]1c1ccccc1`, the EC50 (on Toll-like receptor 1/2; in experiment [1]) was more than 5000 nM throughout.
As to `CCCCCCNC(=O)[C@@H]1CN(C(=O)c2ccc(C(=O)N3C[C@@H](C(=O)N[C@H]4C[C@@H]4c4ccccc4)[C@H](C(=O)N[C@@H]4C[C@H]4c4ccccc4)C3)cc2)C[C@H]1C(=O)N[C@H]1C[C@@H]1c1ccccc1`, the concentration giving a half-maximal response (EC50) at Toll-like receptor 1/2 was 0.25 nM; in experiment [1], 80 nM.
For the molecule `O=C(N[C@H]1C[C@@H]1c1ccc(F)cc1)[C@@H]1CN(C(=O)c2ccc(C(=O)N3C[C@@H](C(=O)N[C@H]4C[C@@H]4c4ccc(F)cc4)[C@H](C(=O)N[C@@H]4C[C@H]4c4ccc(F)cc4)C3)cc2)C[C@H]1C(=O)N[C@H]1C[C@@H]1c1ccc(F)cc1`, the EC50 was determined as 0.13 nM on Toll-like receptor 1/2 and 1.2 nM in experiment [1].
For `CCCCCCCCNC(=O)[C@@H]1CN(C(=O)c2ccc(C(=O)N3C[C@@H](C(=O)N[C@H]4C[C@@H]4c4ccccc4)[C@H](C(=O)N[C@@H]4C[C@H]4c4ccccc4)C3)cc2)C[C@H]1C(=O)N[C@H]1C[C@@H]1c1ccccc1`, in that order: 0.33 nM and 540 nM.
The corresponding values for `CCCCCCCCNC(=O)[C@@H]1CN(C(=O)c2ccc(C(=O)N3C[C@@H](C(=O)NCCCCCCCC)[C@H](C(=O)N[C@@H]4C[C@H]4c4ccccc4)C3)cc2)C[C@H]1C(=O)N[C@@H]1C[C@H]1c1ccccc1` are 3.5 nM and 710 nM.
As for `O=C(NCCc1ccc(F)cc1)[C@@H]1CN(C(=O)C/C=C/CC(=O)N2C[C@@H](C(=O)NCCc3ccc(F)cc3)[C@H](C(=O)NCCc3ccc(F)cc3)C2)C[C@H]1C(=O)NCCc1ccc(F)cc1`, the concentration giving a half-maximal response (EC50) (at Toll-like receptor 1/2; in experiment [1]) was more than 5000 nM each time.
Regarding `O=C(N[C@H]1C[C@@H]1c1ccccc1)[C@@H]1CN(C(=O)[C@@H]2CCC[C@H](C(=O)N3C[C@@H](C(=O)N[C@H]4C[C@@H]4c4ccccc4)[C@H](C(=O)N[C@H]4C[C@@H]4c4ccccc4)C3)C2)C[C@H]1C(=O)N[C@H]1C[C@@H]1c1ccccc1`, the concentration for a half-maximal effect (EC50) (at Toll-like receptor 1/2; in experiment [1]) was more than 5000 nM each time.
On to `O=C(N[C@H]1C[C@@H]1c1ccccc1)[C@@H]1CN(C(=O)c2ccc(C(=O)N3C[C@@H](C(=O)N[C@H]4C[C@@H]4c4ccccc4)[C@H](C(=O)N[C@H]4C[C@@H]4c4ccccc4)C3)c(O)c2)C[C@H]1C(=O)N[C@H]1C[C@@H]1c1ccccc1`, for which the EC50 on Toll-like receptor 1/2 is 20 nM; in experiment [1], more than 5000 nM.
As to `Nc1cc(C(=O)N2C[C@@H](C(=O)N[C@H]3C[C@@H]3c3ccccc3)[C@H](C(=O)N[C@H]3C[C@@H]3c3ccccc3)C2)ccc1C(=O)N1C[C@@H](C(=O)N[C@H]2C[C@@H]2c2ccccc2)[C@H](C(=O)N[C@H]2C[C@@H]2c2ccccc2)C1`, the EC50 was 1 nM on Toll-like receptor 1/2 and 140 nM in experiment [1].
Regarding `Cc1cc(C(=O)N2C[C@@H](C(=O)N[C@H]3C[C@@H]3c3ccccc3)[C@H](C(=O)N[C@H]3C[C@@H]3c3ccccc3)C2)c(C)cc1C(=O)N1C[C@@H](C(=O)N[C@H]2C[C@@H]2c2ccccc2)[C@H](C(=O)N[C@H]2C[C@@H]2c2ccccc2)C1`, the EC50 (at Toll-like receptor 1/2; in experiment [1]) was more than 5000 nM each time.
As to `CCCCCCCCCCCCCCCCNC(=O)[C@@H]1CN(C(=O)c2ccc(C(=O)N3C[C@@H](C(=O)N[C@H]4C[C@@H]4c4ccccc4)[C@H](C(=O)N[C@@H]4C[C@H]4c4ccccc4)C3)cc2)C[C@H]1C(=O)N[C@H]1C[C@@H]1c1ccccc1`, the EC50 at Toll-like receptor 1/2 turned out to be 0.5 nM; in experiment [1], 2.6 nM.
For `O=C(NCCc1ccc(F)cc1)[C@@H]1CN(C(=O)COCC(=O)N2C[C@@H](C(=O)NCCc3ccc(F)cc3)[C@H](C(=O)NCCc3ccc(F)cc3)C2)C[C@H]1C(=O)NCCc1ccc(F)cc1`, in that order: more than 5000 nM and more than 5000 nM.
